# Reference: paper PMC3914206
# Experiments:
# Type in all cases: binding
# Set-up in all cases: KINOMEscan: ABL1(F317L)-phosphorylated / KINOMEscan: ABL1(H396P)-nonphosphorylated / KINOMEscan: ABL1(H396P)-phosphorylated / KINOMEscan: ABL1(M351T)-phosphorylated / KINOMEscan: ABL1(T315I)-phosphorylated / KINOMEscan: ABL1-nonphosphorylated / KINOMEscan: ABL1-phosphorylated / KINOMEscan: ACVR2A / KINOMEscan: ACVR2B / KINOMEscan: ADCK3 / KINOMEscan: ADCK4 / KINOMEscan: AKT1 / KINOMEscan: AKT3 / KINOMEscan: ALK / KINOMEscan: ARK5 / KINOMEscan: AURKA / KINOMEscan: AURKC / KINOMEscan: BIKE / KINOMEscan: BMPR1A / KINOMEscan: BMPR1B / KINOMEscan: BMX / KINOMEscan: BRK / KINOMEscan: BRSK1 / KINOMEscan: BRSK2 / KINOMEscan: CAMK1 / KINOMEscan: CAMK1D / KINOMEscan: CAMK1G / KINOMEscan: CAMK2A / KINOMEscan: CAMK2B / KINOMEscan: AAK1 / KINOMEscan: CAMK2D / KINOMEscan: CAMK2G / KINOMEscan: ABL1(F317I)-nonphosphorylated / KINOMEscan: ABL1(F317I)-phosphorylated / KINOMEscan: ABL1(F317L)-nonphosphorylated: unit: % Ctrl
# Settings in all cases: Compound Concentration 10 µM
# panel of 442 kinases [1] = molecular target: T1, panel of 442 kinases (Homo sapiens, UniProt Q96RR4)
# T1 construct: purchased KINOMEscan
# Description: (§1) We assessed the selectivity of members of this scaffold using the KINOMEscan methodology across a near comprehensive panel of 442 kinases [[18,27]].
# panel of 442 kinases [2] = molecular target: T2, panel of 442 kinases (Homo sapiens, UniProt Q8NE63)
# T2 construct: purchased KINOMEscan
# T2 sequence (Q8NE63 1-616): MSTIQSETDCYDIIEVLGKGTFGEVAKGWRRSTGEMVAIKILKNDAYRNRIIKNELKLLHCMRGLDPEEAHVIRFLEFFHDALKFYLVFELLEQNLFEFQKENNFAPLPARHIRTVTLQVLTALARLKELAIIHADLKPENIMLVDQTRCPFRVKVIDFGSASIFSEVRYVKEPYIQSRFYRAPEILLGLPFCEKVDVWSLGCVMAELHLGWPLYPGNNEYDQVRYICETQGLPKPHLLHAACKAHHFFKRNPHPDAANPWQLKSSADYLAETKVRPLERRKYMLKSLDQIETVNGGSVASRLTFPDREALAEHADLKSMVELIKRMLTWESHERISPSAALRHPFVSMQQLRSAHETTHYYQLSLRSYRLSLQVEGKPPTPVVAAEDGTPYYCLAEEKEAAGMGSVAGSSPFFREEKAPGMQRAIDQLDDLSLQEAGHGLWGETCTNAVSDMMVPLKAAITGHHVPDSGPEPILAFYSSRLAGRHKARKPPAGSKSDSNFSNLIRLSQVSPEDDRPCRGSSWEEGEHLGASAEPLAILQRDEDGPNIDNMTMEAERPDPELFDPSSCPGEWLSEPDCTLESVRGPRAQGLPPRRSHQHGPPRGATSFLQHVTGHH
# Description: as §1
# panel of 442 kinases [3] = molecular target: T3, panel of 442 kinases (Homo sapiens, UniProt Q9UM73)
# T3 construct: purchased KINOMEscan
# Description: as §1
# T1 sequence (Q96RR4 whole entry): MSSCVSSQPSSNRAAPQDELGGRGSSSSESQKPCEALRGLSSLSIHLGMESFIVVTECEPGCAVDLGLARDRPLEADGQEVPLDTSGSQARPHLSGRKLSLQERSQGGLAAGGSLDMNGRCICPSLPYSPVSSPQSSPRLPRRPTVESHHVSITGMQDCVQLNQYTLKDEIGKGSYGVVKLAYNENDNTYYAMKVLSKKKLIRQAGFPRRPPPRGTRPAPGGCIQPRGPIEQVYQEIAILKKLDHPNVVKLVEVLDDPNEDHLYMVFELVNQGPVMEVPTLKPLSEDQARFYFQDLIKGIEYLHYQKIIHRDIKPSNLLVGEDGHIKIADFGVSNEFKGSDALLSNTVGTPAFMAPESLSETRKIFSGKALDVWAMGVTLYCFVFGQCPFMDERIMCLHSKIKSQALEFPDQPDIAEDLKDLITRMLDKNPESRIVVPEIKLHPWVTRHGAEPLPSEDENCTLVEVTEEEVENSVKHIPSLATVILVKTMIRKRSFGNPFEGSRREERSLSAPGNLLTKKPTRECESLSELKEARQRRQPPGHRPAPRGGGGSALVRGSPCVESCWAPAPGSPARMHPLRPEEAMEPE
# T3 sequence (Q9UM73 19-1620): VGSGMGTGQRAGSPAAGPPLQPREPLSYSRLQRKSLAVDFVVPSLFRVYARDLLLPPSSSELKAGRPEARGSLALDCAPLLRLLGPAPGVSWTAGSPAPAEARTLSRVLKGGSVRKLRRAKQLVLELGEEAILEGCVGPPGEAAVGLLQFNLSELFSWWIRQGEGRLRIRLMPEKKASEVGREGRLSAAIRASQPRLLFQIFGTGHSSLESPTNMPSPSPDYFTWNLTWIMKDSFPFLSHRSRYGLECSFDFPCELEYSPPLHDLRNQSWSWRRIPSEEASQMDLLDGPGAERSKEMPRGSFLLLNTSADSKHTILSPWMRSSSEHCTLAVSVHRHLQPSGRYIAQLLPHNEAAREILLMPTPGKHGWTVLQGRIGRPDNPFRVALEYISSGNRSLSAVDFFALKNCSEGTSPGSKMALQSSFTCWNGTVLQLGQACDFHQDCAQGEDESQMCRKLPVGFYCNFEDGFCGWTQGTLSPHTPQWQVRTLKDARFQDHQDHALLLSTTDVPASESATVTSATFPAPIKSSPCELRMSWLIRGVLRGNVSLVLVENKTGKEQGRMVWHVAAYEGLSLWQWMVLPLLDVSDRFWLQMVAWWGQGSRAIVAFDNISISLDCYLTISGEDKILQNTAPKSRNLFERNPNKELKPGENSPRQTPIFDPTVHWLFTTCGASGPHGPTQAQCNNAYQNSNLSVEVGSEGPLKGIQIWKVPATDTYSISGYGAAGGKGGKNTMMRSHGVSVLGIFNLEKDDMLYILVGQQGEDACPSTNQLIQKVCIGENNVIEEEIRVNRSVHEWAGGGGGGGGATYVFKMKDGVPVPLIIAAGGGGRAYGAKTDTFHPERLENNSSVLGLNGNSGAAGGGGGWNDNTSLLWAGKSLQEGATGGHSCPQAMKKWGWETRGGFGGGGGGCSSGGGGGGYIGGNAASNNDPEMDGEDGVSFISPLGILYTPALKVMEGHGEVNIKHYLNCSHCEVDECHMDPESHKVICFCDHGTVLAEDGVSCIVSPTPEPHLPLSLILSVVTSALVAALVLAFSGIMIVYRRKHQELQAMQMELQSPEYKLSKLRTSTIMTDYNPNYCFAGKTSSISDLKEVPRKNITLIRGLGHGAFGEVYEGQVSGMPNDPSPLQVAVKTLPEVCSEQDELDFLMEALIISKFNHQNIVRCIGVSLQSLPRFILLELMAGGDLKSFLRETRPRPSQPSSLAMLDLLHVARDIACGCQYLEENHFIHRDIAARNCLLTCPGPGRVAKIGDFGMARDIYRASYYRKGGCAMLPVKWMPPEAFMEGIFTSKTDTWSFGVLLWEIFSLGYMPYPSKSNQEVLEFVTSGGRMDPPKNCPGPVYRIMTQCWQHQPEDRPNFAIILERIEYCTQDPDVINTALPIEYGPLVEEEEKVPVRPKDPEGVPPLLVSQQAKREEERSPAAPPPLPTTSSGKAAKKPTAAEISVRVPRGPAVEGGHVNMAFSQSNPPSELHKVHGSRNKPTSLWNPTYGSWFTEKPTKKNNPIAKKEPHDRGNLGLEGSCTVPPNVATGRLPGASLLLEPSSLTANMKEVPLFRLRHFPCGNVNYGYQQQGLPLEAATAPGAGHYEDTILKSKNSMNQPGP
structure (smiles),measurement,setting,value
"COc1cc(C(=O)N2CCC(N3CCN(C)CC3)CC2)ccc1Nc1ncc2c(n1)N(C1CCCC1)c1ccccc1C(=O)N2C [Compound 25, 11-cyclopentyl-2-((2-methoxy-4-(4-(4-methylpiperazin-1-yl)piperidine-1-carbonyl)phenyl)amino)-5-methyl-5H-benzo[e]pyrimido[5,4-b][1,4]diazepin-6(11H)-one]",KINOMEscan: CAMKK2,panel of 442 kinases [1],78
same,KINOMEscan: HIPK4,panel of 442 kinases [2],87
same,KINOMEscan: ALK,panel of 442 kinases [3],15
CCOc1cc(C(=O)N2CCC(N3CCN(C)CC3)CC2)ccc1Nc1ncc2c(n1)N(C1CCCC1)c1ccccc1C(=O)N2C [Compound 26],KINOMEscan: CAMKK2,panel of 442 kinases [1],100
same,KINOMEscan: HIPK4,panel of 442 kinases [2],100
same,KINOMEscan: ALK,panel of 442 kinases [3],21
COc1cc(C(=O)N2CCC(N3CCN(C)CC3)CC2)ccc1Nc1ncc2c(n1)N1CCc3cccc(c31)C(=O)N2C [Compound 24],KINOMEscan: CAMKK2,panel of 442 kinases [1],52
same,KINOMEscan: HIPK4,panel of 442 kinases [2],50
same,KINOMEscan: ALK,panel of 442 kinases [3],31
COc1cc(C(=O)N2CCC(N3CCN(C)CC3)CC2)ccc1Nc1ncc2c(n1)N(C)c1ccccc1C(=O)N2C [15 (LRRK2-IN-1)],KINOMEscan: CAMKK2,panel of 442 kinases [1],31
same,KINOMEscan: HIPK4,panel of 442 kinases [2],100
same,KINOMEscan: ALK,panel of 442 kinases [3],13
